Experiments:
Type in all cases: in vivo
ICR mice [1] = test: Carrageenan-induced paw swelling in mice; conditions: 1 mg/kg i.g.; for 0.5 h inhibition rate (%) / 0.5 h swelling degree (μL): 0.5 h after carrageenan injection; for 0.5 h swelling degree (μL) / 1 h swelling degree (μL) / 2 h swelling degree (μL): mean±SD; for 1 h inhibition rate (%) / 1 h swelling degree (μL): 1 h after carrageenan injection; for 2 h inhibition rate (%) / 2 h swelling degree (μL): 2 h after carrageenan injection
Experimental: (§1) ICR mice, body weight 18 g-22 g, half of them being male and the other half being female, provided by the Department of Laboratory Animals, Peking University. The animals were raised in a standard environment: temperature 23±1° C., relative humidity 55±5%, light-dark cycle 12 h/12 h, and fed with standard pellet feed.
The mouse was fixed in a special holder, and both hind feet were exposed. Before the test, a line was drawn at 0.5 cm below the ankle joint of mouse with a marker, and used as a mark for measuring plantar volume. 30 minutes before administration the volume of right hind foot was measured as basic threshold. The mice were randomly divided into 5 groups, 8 mice per group, half of them being male and the other half being female. Vehicle control group (double-distilled water, i.g.), dexamethasone control group (0.5 mg/kg, i.g.), compound DXL-A-22 group (1 mg/kg, i.g.), and DXL-A-24 group (1 mg/kg, i.g.) were set. All drugs were dissolved in double-distilled water before administration, and were administered at 0.1 mL/10 g. Immediately after intragastric administration, 20 μL of 5% carrageenan saline solution was injected subcutaneously in the right hind foot of the mice, and the plantar volumes were measured at time points of 0.5 h, 1 h and 2 h after injection. The difference between the plantar volume of right foot after injection of carrageenan and the plantar volume of right foot before injection was used as swelling degree index (i.e., swelling degree). The swelling degree was calculated according to formula (3). The intensity of anti-inflammatory effect was expressed as inhibition rate (%), and the inhibition rate (%) was calculated according to formula (4).
Swelling degree=plantar volume of right foot after injection−plantar volume of right foot before injection (3)
Inflammation inhibition rate (%)=(plantar swelling degree in vehicle control group−plantar swelling degree in drug administration group)/plantar swelling degree in vehicle control group×100% (4)

ICR mice [2] = test: Xylene-induced ear swelling test in mice (Effect Example 6); conditions: 1 mg/kg i.g., 30 μL xylene one hour after administration; for Swelling degree: mean±SD
Experimental: as §1
Mice were randomly divided into 5 groups, 8 mice per group, half of them being male and the other half being female. Vehicle control group (double-distilled water, i.g.), dexamethasone control group (2 mg/kg, i.g.), compound DXL-A-22 group (1 mg/kg, i.g.), and compound DXL-A-24 group (1 mg/kg, i.g.) were set. All drugs were dissolved in double-distilled water before administration, and given by intragastric administration at 0.1 mL/10 g. One hour after administration, 30 μL of xylene was evenly smeared on the inner and outer sides of right ear of mouse to cause inflammation. After 0.5 hour, the left and right ears of mouse were cut, and circular ear pieces of the same size were punched at the same position on the left and right ears using the punch (diameter 6 mm) respectively, and weighed for the weights of the left and right ear pieces. The difference between the weight of the right ear after applying xylene and the weight of the left ear without applying xylene was used as swelling degree index (i.e., swelling degree). The swelling degree was calculated according to formula (1). The intensity of anti-inflammatory effect was expressed as inhibition rate (%), and the inhibition rate (%) was calculated according to formula (2).
Swelling degree=weight of right ear piece−weight of left ear piece (1)
Inflammation inhibition rate (%)=(ear swelling degree in vehicle control group−ear swelling degree in drug group)/ear swelling degree in vehicle control group×100% (2)

ICR mice [3] = test: Xylene-induced mouse ear swelling test (Effect Example 4); conditions: Mus musculus, po, 2 h; 1 mg/kg intragastric, 50 uL xylene two hours after administration; read-out: Inhibition rate (%)
Experimental: (§2) ICR mice, 18-22 g, half of them being male and the other half being female, provided by the Department of Laboratory Animals, Peking University (License No.: SCXK (Beijing) 2016-0010).
ICR mice were randomly grouped, 8 mice per group, half of them being male and the other half being female. Vehicle control group (double-distilled water) and groups for samples to be tested (the compounds and doses thereof were shown in Table 4). All drugs were dissolved in double-distilled water immediately before administration, and given by intragastric administration at predetermined doses. Two hours after administration, 50 uL of xylene was smeared evenly on the inner and outer sides of right ear of mouse. After 30 minutes, the left and right ears of mouse were cut, and circular ear pieces of the same size were punched at the same position on the left and right ears, and weighed. The ear swelling inhibition rate of compound in mice was calculated according to the formula.
Inhibition rate %=(degree of ear swelling in vehicle control group−degree of ear swelling in test group)/degree of ear swelling in vehicle control group×100

ICR mice [4] = test: Hot plate test; conditions: Mus musculus, po; 1 mg/kg intragastric, latency 2.0 hours after administration, hot plate 55° C.; read-out: PTE %
Experimental: as §2
The temperature of hot plate was adjusted to 55° C., and the responses of mouse such as licking hind feet and jumping were used as the observation indexes. The time from the placement of mice on copper plate to the appearance of the above responses was defined as latency time. The latency time was measured for three times 30 minutes before administration, and the average value thereof was used as basic threshold, or baseline latency (BL). The animals with a latency time greater than 15 s and less than 5 s were removed, and the residual mice were randomly grouped, 8 animals per group.
Vehicle control group (double-distilled water) and groups for samples to be tested (the compounds and doses thereof were shown in Table 1) were set. All drugs were dissolved in […] before administration, and given by intragastric administration. The latency time was measured 2.0 hours after administration. Percentage of Pain Threshold Elevated Rate (PTE %) of compound on mice was calculated according to the following formula:
PTE %=(latency time of test group−latency time of vehicle control group)/latency time of vehicle control group×100

Row | Compound | 0.5 h inhibition rate (%) (ICR mice [1]) | 0.5 h swelling degree (μL) (ICR mice [1]) | 1 h inhibition rate (%) (ICR mice [1]) | 1 h swelling degree (μL) (ICR mice [1]) | 2 h inhibition rate (%) (ICR mice [1]) | 2 h swelling degree (μL) (ICR mice [1]) | Inhibition rate (%) (ICR mice [2]) | Swelling degree (ICR mice [2]) | inhibition in vivo at 1 mg/kg (ICR mice [3]) | change in vivo at 1 mg/kg (ICR mice [4])
1 | Br.Brc1ccc(N2CC[N+]3(CCCC3)CC2)cc1 [DXL-A-22, 8-(4-bromophenyl)-5,8-diazaspiro[4.5]decan-5-ium bromide] | 50.07% | 42.63 ± 16.98**/ μL | 55.56% | 38.50 ± 11.40**/ μL | 65.36% | 38.63 ± 11.67**/ μL | 42.62% | 5.48 ± 0.16 mg | 47% | 52.6%
2 | FC(F)(F)c1ccc(N2CC[N+]3(CCCC3)CC2)cc1.[Br-] [DXL-A-24, 8-(4-(trifluoromethyl)phenyl)-5,8-diazaspiro[4.5]decan-5-ium bromide] | 52.27% | 40.75 ± 13.34**/ μL | 57.72% | 36.63 ± 16.12**/ μL | 67.49% | 36.25 ± 9.60**/ μL | 51.41% | 4.64 ± 0.11 mg | 53.4% | 48.6%

From US20200369674A1, “ANTI-PAIN COMPOUND AND PREPARATION METHOD THEREOF” (LUNAN PHARMACEUTICAL GROUP CORPORATION, priority 2017, published 2020)
